Test results: patent US5733924A, “DC 107 derivatives and treatment methods” (Kyowa Hakko Kogyo Co., Ltd., priority 1995, dated 1998)
In brackets after ≈: the same amount, converted by molar mass. Like-named read-outs stand apart in the source and are kept apart here.

Key:
[1] = test system: Enterococcus faecium ATCC 10541; assay: Antibacterial activity, agar dilution method (MIC); format: cell-based
Excerpt: (§1) The antibacterial activity as determined by the agar dilution method using a medium prepared by dissolving 3 g of Bacto-Tryptone (a product of Difco Laboratories), 3 g of a meat extract, 1 g of an yeast extract, 1 g of glucose and 16 g of agar in one liter of water (pH 7).
EF: Enterococcus faecium ATCC 10541

[2] = test system: Staphylococcus aureus ATCC 6538P; assay: Antibacterial activity, agar dilution method (MIC); format: cell-based; settings: ATCC6538P
Excerpt: as §1
SA: Staphylococcus aureus ATCC 6538P

[3] = test system: Bacillus subtilis No. 10707; assay: Antibacterial activity, agar dilution method (MIC); format: cell-based
Excerpt: as §1
BS: Bacillus subtilis No. 10707

[4] = test system: Klebsiella pneumoniae ATCC 10031; assay: Antibacterial activity, agar dilution method (MIC); format: cell-based
Excerpt: as §1
KP: Klebsiella pneumoniae ATCC 10031

[5] = test system: Escherichia coli ATCC 26; assay: Antibacterial activity, agar dilution method (MIC); format: cell-based
Excerpt: as §1
EC: Escherichia coli ATCC 26

[6] = test system: P388 Leukemia; assay: Antitumor activity against P388 leukemia in mice (increased life span); format: in vivo, CDF1 mice; settings: Mus musculus, P388, ip, 720 h
Protocol: Ascites were collected from the abdominal cavity of P388 ascites tumor-bearing cancer mice (DBA/2) on the 7th day after transplantation. A number of P388 cells in the ascites was counted, and a tumor cell floating liquid of 5×10^6 cells/ml was prepared using a physiological saline solution. Then, 0.2 ml of the solution containing 1×10^6 cells was transplanted into the abdominal cavity of CDF1 mice having a body weight of from 20 to 25 g.
The effect of the test compound was determined in terms of the ratio of average survival days of the group administered with the test compound to average survival days of the control group (non-medicated group) (i.e., an increased life span, ILS%).

[7] = test system: various bacteria; settings: Japanese Published Unexamined Patent Application No. 112988/89; cited from earlier work
[8] = Japanese Published Unexamined Patent Application No. 112988/89; cited from earlier work
[9] = ATCC10541, EF: Enterococcus faecium ATCC 10541, pH 7, read-out: MIC (minimum growth inhibitory concentration)
[10] = SA: Staphylococcus aureus ATCC 6538P, agar dilution, pH 7, read-out: MIC (minimum growth inhibitory concentration)
[11] = BS: Bacillus subtilis No. 10707, pH 7, read-out: MIC (minimum growth inhibitory concentration)
[12] = ATCC10031, KP: Klebsiella pneumoniae ATCC 10031, agar dilution, pH 7, read-out: MIC (minimum growth inhibitory concentration)
[13] = ATCC26, EC: Escherichia coli ATCC 26, pH 7, read-out: MIC (minimum growth inhibitory concentration)
[14] = single i.p. 24 hours after transplantation, CDF1 mice, 30 days observation, read-out: ILS (increased life span)
[15] = single i.p. 24 hours after transplantation, CDF1 mice, 30 days observation

| Compound | MIC [1, 9] | MIC [2, 10] | MIC [3, 11] | MIC [4, 12] | MIC [5, 13] | other results |
| --- | --- | --- | --- | --- | --- | --- |
| C/C1=C\C(OC(=O)[C@H](C)NC(=O)OCc2ccccc2)C(=O)/C=C/C=C\c2csc(n2)C(C)NC(=O)CC2(CC1)[S+]([O-])SC(=O)C2(C)O (stereo partly shown) [Compound 103] | 0.081 µg/mL (≈ 0.113 µM) | 42 µg/mL (≈ 58.7 µM) | 0.041 µg/mL (≈ 0.0573 µM) | 1.3 µg/mL (≈ 1.82 µM) | 10 µg/mL (≈ 14 µM) | ILS at 4 mg/kg [6, 14]: 52% |
| C/C1=C\C(OC(=O)CCCNC(=O)OCc2ccccc2)C(=O)/C=C/C=C\c2csc(n2)C(C)NC(=O)CC2(CC1)[S+]([O-])SC(=O)C2(C)O (stereo not shown) [Compound 106] | 0.16 µg/mL (≈ 0.219 µM) | 0.16 µg/mL (≈ 0.219 µM) | 0.041 µg/mL (≈ 0.0562 µM) | 1.3 µg/mL (≈ 1.78 µM) | 10 µg/mL (≈ 13.7 µM) | ILS at 16 mg/kg [6, 15]: 62% |
| C/C1=C\C(OC(=O)CNC(=O)CNC(=O)OCc2ccccc2)C(=O)/C=C/C=C\c2csc(n2)C(C)NC(=O)CC2(CC1)[S+]([O-])SC(=O)C2(C)O (stereo not shown) [Compound 108] | 0.081 µg/mL (≈ 0.107 µM) | 0.16 µg/mL (≈ 0.211 µM) | 0.041 µg/mL (≈ 0.054 µM) | 0.33 µg/mL (≈ 0.435 µM) | 21 µg/mL (≈ 27.7 µM) | ILS at 4 mg/kg [6, 14]: 72% |
| C/C1=C\C(OC(=O)CNC(=O)CNC(=O)c2ccccc2)C(=O)/C=C/C=C\c2csc(n2)C(C)NC(=O)CC2(CC1)[S+]([O-])SC(=O)C2(C)O (stereo not shown) [Compound 109] | 0.081 µg/mL (≈ 0.111 µM) | 0.081 µg/mL (≈ 0.111 µM) | 0.35 µg/mL (≈ 0.48 µM) | 0.041 µg/mL (≈ 0.0563 µM) | 3.2 µg/mL (≈ 4.39 µM) | ILS at 8 mg/kg [6, 14]: 78% |
| C/C1=C\C(OC(=O)CNC(=O)CCNC(=O)OCc2ccccc2)C(=O)/C=C/C=C\c2csc(n2)C(C)NC(=O)CC2(CC1)[S+]([O-])SC(=O)C2(C)O (stereo not shown) [Compound 111] | 0.16 µg/mL (≈ 0.207 µM) | 0.33 µg/mL (≈ 0.427 µM) | 0.081 µg/mL (≈ 0.105 µM) | 0.041 µg/mL (≈ 0.053 µM) | 2.6 µg/mL (≈ 3.36 µM) | ILS at 16 mg/kg [6, 15]: 76% |
| C/C1=C\C(OC(=O)CNC(=O)CN(C)C(=O)OCc2ccccc2)C(=O)/C=C/C=C\c2csc(n2)C(C)NC(=O)CC2(CC1)[S+]([O-])SC(=O)C2(C)O (stereo not shown) [Compound 114] | 0.037 µg/mL (≈ 0.0479 µM) | 0.037 µg/mL (≈ 0.0479 µM) | 0.037 µg/mL (≈ 0.0479 µM) | 1.2 µg/mL (≈ 1.55 µM) | 11 µg/mL (≈ 14.2 µM) | ILS at 4 mg/kg [6, 14]: 70% |
| C/C1=C\C(OC(=O)CNC(=O)[C@H](CO)NC(=O)OCc2ccccc2)C(=O)/C=C/C=C\c2csc(n2)C(C)NC(=O)CC2(CC1)[S+]([O-])SC(=O)C2(C)O (stereo partly shown) [Compound 116] | 0.033 µg/mL (≈ 0.0418 µM) | 0.033 µg/mL (≈ 0.0418 µM) | 0.033 µg/mL (≈ 0.0418 µM) | 0.033 µg/mL (≈ 0.0418 µM) | 4.2 µg/mL (≈ 5.32 µM) |  |
| C/C1=C\C(OC(=O)CN(C)C(=O)CCNC(=O)OCc2ccccc2)C(=O)/C=C/C=C\c2csc(n2)C(C)NC(=O)CC2(CC1)[S+]([O-])SC(=O)C2(C)O (stereo not shown) [Compound 117] | 0.23 µg/mL (≈ 0.292 µM) | 0.13 µg/mL (≈ 0.165 µM) | 0.13 µg/mL (≈ 0.165 µM) | 0.057 µg/mL (≈ 0.0724 µM) | 0.46 µg/mL (≈ 0.585 µM) | ILS at 16 mg/kg [6, 15]: 73% |
| COC1(OC2C=C(C)CCC3(C(C)(O)C(=O)SCc4oc(=O)oc4C)CC(=O)N(C(C)c4nc(cs4)C=CC=CC2=O)[S+]3[O-])CCOCC1 (stereo not shown) [Compound 122] | 1.3 µg/mL (≈ 1.76 µM) | 0.65 µg/mL (≈ 0.882 µM) | 0.16 µg/mL (≈ 0.217 µM) | 2.6 µg/mL (≈ 3.53 µM) | 42 µg/mL (≈ 57 µM) | ILS at 2 mg/kg ([6]; 2.0 mg/kg, single i.p. 24 hours after transplantation, CDF1 mice, 30 days observation, read-out: ILS (increased life span)): 52% |
| CC1=CC(OC(=O)c2ccccn2)C(=O)C=CC=Cc2csc(n2)C(C)N2C(=O)CC(C(C)(O)C(=O)SCc3oc(=O)oc3C)(CC1)[S+]2[O-] (stereo not shown) [Compound 143] |  |  |  |  |  | MIC ([1]; Enterococcus faecium, ATCC10541, pH 7, read-out: MIC (minimum growth inhibitory concentration), EF: Enterococcus faecium ATCC 10541): 0.33 µg/mL (≈ 0.453 µM); MIC ([2]; Staphylococcus aureus, pH 7, read-out: MIC (minimum growth inhibitory concentration)): 0.16 µg/mL (≈ 0.22 µM); MIC ([3]; Bacillus subtilis, NO.10707, pH 7, read-out: MIC (minimum growth inhibitory concentration), BS: Bacillus subtilis No. 10707): 0.16 µg/mL (≈ 0.22 µM); MIC ([4]; Klebsiella pneumoniae, ATCC10031, pH 7, read-out: MIC (minimum growth inhibitory concentration)): 0.65 µg/mL (≈ 0.893 µM); MIC ([5]; Escherichia coli, ATCC26, pH 7, read-out: MIC (minimum growth inhibitory concentration), EC: Escherichia coli ATCC 26): 5.2 µg/mL (≈ 7.14 µM); ILS at 0.5 mg/kg ([6]; read-out: ILS (increased life span)): 49% |
| CC1=CC(OC(=O)CNC(=O)CCNC(=O)OC(C)(C)C)C(=O)C=CC=Cc2csc(n2)C(C)N2C(=O)CC(C(C)(O)C(=O)SCc3oc(=O)oc3C)(CC1)[S+]2[O-] (stereo not shown) [Compound 170] | 2.3 µg/mL (≈ 2.7 µM) | 2.3 µg/mL (≈ 2.7 µM) | 2.3 µg/mL (≈ 2.7 µM) | 2.3 µg/mL (≈ 2.7 µM) | 75 µg/mL (≈ 88.1 µM) | ILS at 8 mg/kg [6, 14]: 70% |
| C/C1=C\C(O)C(=O)/C=C/C=C\c2csc(n2)C(C)NC(=O)CC2(CC1)[S+]([O-])SC(=O)C2(C)O (stereo not shown) [DC107] |  |  |  |  |  | antibacterial activity [7]: exhibits an antibacterial activity against various bacteria; antitumor activity [8]: also an antitumor activity |
